Data taken from US9133148B2, “Carbamate compounds and of making and using same” (Abide Therapeutics, Inc., priority 2012, dated 2015).

Key:
FAAH = FAAH (Mus musculus (Mouse), UniProt O08914); test: In vitro competitive activity-based protein profiling (FP-Rh), mouse FAAH; type: biochemical; conditions: mouse brain membrane proteome, competitive ABPP (Table 7)
Description: (§1) In Vitro Competitive Activity-Based Protein Profiling.
(§2) Proteomes (mouse brain membrane fraction or cell lysates) ([…], 1.0 mg/mL total protein concentration) were preincubated with varying concentrations of inhibitors at 37° C. After 30 min, FP-Rh (1.0 μL, 50 μM in DMSO) was added and the mixture was incubated for another 30 min at 37° C. Reactions were quenched with SDS loading buffer (50 μL—4×) and run on SDS-PAGE.

ABHD6 = ABHD6 (Mus musculus (Mouse), UniProt Q8R2Y0); test: In vitro competitive activity-based protein profiling (FP-Rh), mouse ABHD6; type: biochemical; conditions: mouse brain membrane proteome, competitive ABPP (Table 7)
Description: as §1, §2

Human MAGL = Human MAGL (Homo sapiens (Human), UniProt Q99685); test: Competitive ABPP with recombinant human MAGL expressed in HEK293T cells; type: biochemical; conditions: hMAGL in HEK293T cell lysates (Table 7)
Description: as §2
Recombinant Expression of Human MAGL in HEK293T Cells.
Cell lysates were diluted with mock proteomes for use in competitive ABPP experiments.

MAGL = MAGL (Mus musculus (Mouse), UniProt O35678); test: In vitro competitive activity-based protein profiling (FP-Rh), mouse MAGL; type: biochemical; conditions: mouse brain membrane proteome, competitive ABPP (Table 7)
Description: as §1, §2

Mouse brain MAGL = Mouse brain MAGL (Mus musculus (Mouse), UniProt O35678); test: Mouse brain proteomes from inhibitor treated mice (oral gavage, ABPP of brain MAGL); type: in vivo; conditions: po
Description: Preparation of Mouse Brain Proteomes from Inhibitor Treated Mice.
Inhibitors were administered to wild-type C57Bl/6J by oral gavage in a vehicle of polyethylene glycol.

Sequence of Human MAGL (Q99685 whole entry): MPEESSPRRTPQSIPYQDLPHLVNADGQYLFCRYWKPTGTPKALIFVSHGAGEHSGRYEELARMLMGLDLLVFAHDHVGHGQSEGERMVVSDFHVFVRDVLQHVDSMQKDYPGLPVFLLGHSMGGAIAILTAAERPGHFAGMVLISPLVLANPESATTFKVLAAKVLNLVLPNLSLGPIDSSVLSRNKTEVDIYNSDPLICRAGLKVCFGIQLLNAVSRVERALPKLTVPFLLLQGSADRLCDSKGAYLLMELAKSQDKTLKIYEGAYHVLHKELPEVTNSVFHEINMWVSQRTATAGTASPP
Sequence of MAGL (O35678 whole entry): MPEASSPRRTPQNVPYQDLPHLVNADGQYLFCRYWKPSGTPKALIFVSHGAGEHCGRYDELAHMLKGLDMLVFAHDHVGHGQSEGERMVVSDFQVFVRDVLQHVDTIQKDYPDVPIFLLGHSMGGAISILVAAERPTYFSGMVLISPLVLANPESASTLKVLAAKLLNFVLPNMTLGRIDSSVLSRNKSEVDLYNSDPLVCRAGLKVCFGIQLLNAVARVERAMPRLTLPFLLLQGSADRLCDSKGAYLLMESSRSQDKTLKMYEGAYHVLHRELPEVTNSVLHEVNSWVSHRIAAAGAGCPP
Sequence of Mouse brain MAGL (O35678 whole entry): as above
Sequence of ABHD6 (Q8R2Y0 whole entry): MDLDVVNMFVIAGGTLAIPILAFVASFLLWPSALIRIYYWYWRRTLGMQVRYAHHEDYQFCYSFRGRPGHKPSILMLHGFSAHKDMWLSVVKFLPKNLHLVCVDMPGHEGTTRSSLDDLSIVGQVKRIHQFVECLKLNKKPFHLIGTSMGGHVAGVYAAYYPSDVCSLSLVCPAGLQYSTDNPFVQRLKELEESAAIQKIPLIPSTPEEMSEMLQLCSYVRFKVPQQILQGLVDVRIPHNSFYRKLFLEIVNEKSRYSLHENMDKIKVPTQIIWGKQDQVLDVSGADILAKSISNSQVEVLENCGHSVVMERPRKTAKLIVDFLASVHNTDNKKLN
Sequence of FAAH (O08914 whole entry): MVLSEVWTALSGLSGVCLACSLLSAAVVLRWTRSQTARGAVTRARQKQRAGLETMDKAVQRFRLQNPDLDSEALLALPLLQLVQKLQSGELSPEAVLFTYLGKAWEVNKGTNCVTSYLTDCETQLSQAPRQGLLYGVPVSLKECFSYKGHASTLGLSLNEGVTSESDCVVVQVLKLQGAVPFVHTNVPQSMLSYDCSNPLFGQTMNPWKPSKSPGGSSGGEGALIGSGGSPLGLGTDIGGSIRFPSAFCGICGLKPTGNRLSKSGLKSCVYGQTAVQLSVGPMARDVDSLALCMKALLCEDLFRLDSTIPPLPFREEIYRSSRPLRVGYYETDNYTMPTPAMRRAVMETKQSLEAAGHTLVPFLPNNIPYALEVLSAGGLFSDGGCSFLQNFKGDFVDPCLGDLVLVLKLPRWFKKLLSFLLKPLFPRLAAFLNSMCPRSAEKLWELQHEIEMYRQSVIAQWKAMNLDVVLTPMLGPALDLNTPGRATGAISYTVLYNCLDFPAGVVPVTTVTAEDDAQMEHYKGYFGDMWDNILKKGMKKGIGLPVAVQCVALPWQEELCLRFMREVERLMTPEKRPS

IC50 (FAAH): > 6250 nM
IC50 (ABHD6): 100 to 1000 nM
IC50 (Human MAGL): < 100 nM
IC50 (MAGL): < 100 nM
ED50 (Mouse brain MAGL): < 4 mg/kg
Structure (SMILES): COc1cc(N2CCOCC2)ccc1CN1CCN(C(=O)OC(C(F)(F)F)C(F)(F)F)CC1 [Example 9s, 1,1,1,3,3,3-hexafluoropropan-2-yl 4-(2-methoxy-4-morpholinobenzyl)piperazine-1-carboxylate]
